From patent US10149839B2, “Chemical compounds” (AstraZeneca AB, priority 2016, dated 2018)
≈ marks a conversion by molar mass, not a printed value.

Columns and labels:
[1] = Thermodynamic solubility (shake flask); assay type: physicochemical; details: aqueous phosphate buffer, 25 °C, pH 7.4, aqueous buffer, thermodynamic from solid, aqueous phosphate buffer pH 7.4, 24 hours
[2] = Human plasma protein binding (equilibrium dialysis); assay type: in vitro ADME; details: dialysis 18 hours
physchem = details: 1-octanol/aqueous buffer, pH 7.4
[3] = biological target: Estrogen Receptor (ERα) in MCF-7 cells (Homo sapiens (Human), UniProt P03372); experiment: MCF-7 ER down-regulation assay (immuno-fluorescence); assay type: cell-based; details: for % downregulation: shown in brackets where not >90%
Chain of Estrogen Receptor (ERα) in MCF-7 cells (P03372 whole entry): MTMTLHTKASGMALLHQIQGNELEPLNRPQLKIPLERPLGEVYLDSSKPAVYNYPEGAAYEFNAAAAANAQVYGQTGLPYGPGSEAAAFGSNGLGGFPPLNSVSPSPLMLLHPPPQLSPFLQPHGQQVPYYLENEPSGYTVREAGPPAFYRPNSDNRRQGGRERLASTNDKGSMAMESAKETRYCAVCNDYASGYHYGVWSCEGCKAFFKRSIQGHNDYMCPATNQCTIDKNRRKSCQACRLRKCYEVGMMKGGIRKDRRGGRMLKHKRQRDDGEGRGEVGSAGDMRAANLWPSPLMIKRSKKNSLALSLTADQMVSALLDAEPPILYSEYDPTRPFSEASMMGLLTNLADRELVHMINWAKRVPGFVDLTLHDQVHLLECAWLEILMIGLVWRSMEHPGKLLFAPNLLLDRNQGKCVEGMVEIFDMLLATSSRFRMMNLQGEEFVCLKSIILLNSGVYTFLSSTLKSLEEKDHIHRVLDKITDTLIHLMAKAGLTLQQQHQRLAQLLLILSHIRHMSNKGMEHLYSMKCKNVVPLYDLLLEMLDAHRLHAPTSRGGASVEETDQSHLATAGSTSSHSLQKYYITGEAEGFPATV

Row | solubility at 24 h [1] | Human plasma protein binding (% free) [2] | logD (physchem) | IC50 ([3]; 18-22 hours incubation) | DC50 ([3]; 18-22 hours incubation, read-out: ER down regulation IC50 value) | % downregulation [3] | SMILES
1 | 163 µM (≈ 77.5 µg/mL) | – | – | – | – | – | COc1cc(OCCNCCCF)ccc1[C@@H]1c2[nH]c3ccccc3c2C[C@@H](C)N1CC(F)F [Example 43, N-(2-(4-((1R,3R)-2-(2,2-Difluoroethyl)-3-methyl-2,3,4,9-tetrahydro-1H-pyrido[3,4-b]indol-1-yl)-3-methoxyphenoxy)ethyl)-3-fluoropropan-1-amine]
2 | 83 µM (≈ 41.1 µg/mL) | 1.5 % free | 3.4 | – | – | – | C[C@@H]1Cc2c([nH]c3ccccc23)[C@@H](c2c(F)cc(OCCNCCCF)cc2F)N1C[C@H](F)CF (single isomer, unassigned) [Example 15]
3 | > 1000 µM | 13 % free | 2.3 | 0.83 nM | – | – | C[C@@H]1Cc2c([nH]c3ccccc23)[C@@H](c2cnc(NCCNCCCF)cn2)N1CC(F)F [Example 71, N1-(5-((1S,3R)-2-(2,2-difluoroethyl)-3-methyl-2,3,4,9-tetrahydro-1H-pyrido[3,4-b]indol-1-yl)pyrazin-2-yl)-N2-(3-fluoropropyl)ethane-1,2-diamine]
4 | 197 µM (≈ 96.1 µg/mL) | 6.1 % free | 3 | – | – | – | C[C@@H]1Cc2c([nH]c3ccccc23)[C@@H](c2ccc(OCCNCCCF)cc2F)N1CC1(F)COC1 [Example 22, 3-fluoro-N-(2-(3-fluoro-4-((1R,3R)-2-((3-fluorooxetan-3-yl)methyl)-3-methyl-2,3,4,9-tetrahydro-1H-pyrido[3,4-b]indol-1-yl)phenoxy)ethyl)propan-1-amine]
5 | 150 µM (≈ 72.2 µg/mL) | 1.6 % free | 3.4 | – | – | – | C[C@@H]1Cc2c([nH]c3ccccc23)[C@@H](c2c(F)cc(OCCNCCCF)cc2F)N1CC(F)F [Example 13, N-(2-(4-((1R,3R)-2-(2,2-difluoroethyl)-3-methyl-2,3,4,9-tetrahydro-1H-pyrido[3,4-b]indol-1-yl)-3,5-difluorophenoxy)ethyl)-3-fluoropropan-1-amine]
6 | 587 µM (≈ 287 µg/mL) | 13 % free | 2.7 | – | 3.9 nM | – | C[C@@H]1Cc2c([nH]c3ccccc23)[C@@H](c2cnc(OCCNCCCF)cc2F)N1CC1(F)COC1 [Example 62, 3-fluoro-N-(2-((4-fluoro-5-((1R,3R)-2-((3-fluorooxetan-3-yl)methyl)-3-methyl-2,3,4,9-tetrahydro-1H-pyrido[3,4-b]indol-1-yl)pyridin-2-yl)oxy)ethyl)propan-1-amine]
7 | 853 µM (≈ 430 µg/mL) | 2.8 % free | 2.9 | 0.25 nM | – | – | COc1cc(NCCNCCCF)ccc1[C@@H]1c2[nH]c3ccccc3c2C[C@@H](C)N1CC(F)(F)CO [Example 59, 2,2-difluoro-3-((1R,3R)-1-(4-((2-((3-fluoropropyl)amino)ethyl)amino)-2-methoxyphenyl)-3-methyl-1,3,4,9-tetrahydro-2H-pyrido[3,4-b]indol-2-yl)propan-1-ol]
8 | 30 µM (≈ 14.7 µg/mL) | 0.33 % free | 3.9 | 0.14 nM | – | – | COc1cc(OCCNCCCF)ccc1[C@@H]1c2[nH]c3ccccc3c2C[C@@H](C)N1CC(C)(F)F [Example 74, N-(2-(4-((1R,3R)-2-(2,2-difluoropropyl)-3-methyl-2,3,4,9-tetrahydro-1H-pyrido[3,4-b]indol-1-yl)-3-methoxyphenoxy)ethyl)-3-fluoropropan-1-amine]
9 | 18 µM (≈ 9.39 µg/mL) | <0.30 % free | > 3.9 | 0.26 nM | – | – | C[C@@H]1Cc2c([nH]c3ccccc23)[C@@H](c2c(F)cc(OCC(CO)NCCCF)cc2F)N1CC(C)(C)F (stereo partly drawn) [Example 20, 3-(3,5-difluoro-4-((1R,3R)-2-(2-fluoro-2-methylpropyl)-3-methyl-2,3,4,9-tetrahydro-1H-pyrido[3,4-b]indol-1-yl)phenoxy)-2-((3-fluoropropyl)amino)propan-1-ol]
10 | 51 µM (≈ 25.2 µg/mL) | 0.66 % free | > 3.2 | 0.094 nM | – | – | COc1cc(OCCNCCCF)ccc1[C@@H]1c2[nH]c3ccccc3c2C[C@@H](C)N1CC(F)(F)F [Example 73, 3-fluoro-N-(2-(3-methoxy-4-((1R,3R)-3-methyl-2-(2,2,2-trifluoroethyl)-2,3,4,9-tetrahydro-1H-pyrido[3,4-b]indol-1-yl)phenoxy)ethyl)propan-1-amine]
11 | 370 µM (≈ 174 µg/mL) | – | – | – | – | – | C[C@@H]1Cc2c([nH]c3ccccc23)[C@@H](c2ccc(OCCNCCCF)cc2)N1CC1(F)COC1 [Example 24, 3-fluoro-N-(2-(4-((1R,3R)-2-((3-fluorooxetan-3-yl)methyl)-3-methyl-2,3,4,9-tetrahydro-1H-pyrido[3,4-b]indol-1-yl)phenoxy)ethyl)propan-1-amine]
12 | > 1000 µM | – | 2.5 | 0.87 nM | – | – | COc1cc(NCCNCCCF)ncc1[C@@H]1c2[nH]c3ccccc3c2C[C@@H](C)N1CC(F)F [Example 67, N1-(5-((1R,3R)-2-(2,2-difluoroethyl)-3-methyl-2,3,4,9-tetrahydro-1H-pyrido[3,4-b]indol-1-yl)-4-methoxypyridin-2-yl)-N2-(3-fluoropropyl)ethane-1,2-diamine]
13 | 418 µM (≈ 211 µg/mL) | – | – | – | – | – | COc1cc(OCCNCCCF)ccc1[C@@H]1c2[nH]c3ccccc3c2C[C@@H](C)N1CC(F)(F)CO [Example 58, 2,2-difluoro-3-((1R,3R)-1-(4-(2-((3-fluoropropyl)amino)ethoxy)-2-methoxyphenyl)-3-methyl-1,3,4,9-tetrahydro-2H-pyrido[3,4-b]indol-2-yl)propan-1-ol]
14 | 438 µM (≈ 214 µg/mL) | – | 3.1 | 0.33 nM | – | – | COc1cc(NCCNCCCF)ncc1[C@@H]1c2[nH]c3ccccc3c2C[C@@H](C)N1CC(C)(F)F [Example 68, N1-(5-((1R,3R)-2-(2,2-difluoropropyl)-3-methyl-2,3,4,9-tetrahydro-1H-pyrido[3,4-b]indol-1-yl)-4-methoxypyridin-2-yl)-N2-(3-fluoropropyl)ethane-1,2-diamine]
15 | 122 µM (≈ 55.3 µg/mL) | 1.7 % free | 3.3 | – | – | – | C[C@@H]1Cc2c([nH]c3ccccc23)[C@@H](c2ccc(OCCNCCCF)cc2)N1CC1(F)CC1 [Example 23, 3-fluoro-N-(2-(4-((1R,3R)-2-((1-fluorocyclopropyl)methyl)-3-methyl-2,3,4,9-tetrahydro-1H-pyrido[3,4-b]indol-1-yl)phenoxy)ethyl)propan-1-amine]
16 | 911 µM (≈ 461 µg/mL) | 14 % free | 2.1 | – | – | – | COc1cc(NCCNCCCF)ncc1[C@@H]1c2[nH]c3ccccc3c2C[C@@H](C)N1CC(F)(F)CO [Example 65, 2,2-difluoro-3-((1R,3R)-1-(6-((2-((3-fluoropropyl)amino)ethyl)amino)-4-methoxypyridin-3-yl)-3-methyl-1,3,4,9-tetrahydro-2H-pyrido[3,4-b]indol-2-yl)propan-1-ol]
17 | 192 µM (≈ 94 µg/mL) | – | 4 | 0.21 nM | – | – | COc1nc(NCCNCCCF)ccc1[C@@H]1c2[nH]c3ccccc3c2C[C@@H](C)N1CC(C)(F)F [Example 78, N1-(5-((1R,3R)-2-(2,2-difluoropropyl)-3-methyl-2,3,4,9-tetrahydro-1H-pyrido[3,4-b]indol-1-yl)-6-methoxypyridin-2-yl)-N2-(3-fluoropropyl)ethane-1,2-diamine]
18 | 335 µM (≈ 159 µg/mL) | – | 3 | 0.32 nM | – | – | COc1nc(NCCNCCCF)ccc1[C@@H]1c2[nH]c3ccccc3c2C[C@@H](C)N1CC(F)F [Example 76, N1-(5-((1R,3R)-2-(2,2-difluoroethyl)-3-methyl-2,3,4,9-tetrahydro-1H-pyrido[3,4-b]indol-1-yl)-6-methoxypyridin-2-yl)-N2-(3-fluoropropyl)ethane-1,2-diamine]
19 | – | – | – | 19 nM | – | (57%) | C[C@@H]1Cc2c([nH]c3ccccc23)[C@@H](c2ccc(OCCNCCCF)cc2C#N)N1CC1(F)CC1 [Example 29, 2-((1R,3R)-2-((1-fluorocyclopropyl)methyl)-3-methyl-2,3,4,9-tetrahydro-1H-pyrido[3,4-b]indol-1-yl)-5-(2-((3-fluoropropyl)amino)ethoxy)benzonitrile]
20 | 32 µM (≈ 15.3 µg/mL) | – | 4.1 | 0.2 nM | – | (89%) | C[C@@H]1Cc2c([nH]c3ccccc23)[C@@H](c2ccc(OCCNCCCF)cc2F)N1CC(C)(F)F [Example 55, N-(2-(4-((1R,3R)-2-(2,2-difluoropropyl)-3-methyl-2,3,4,9-tetrahydro-1H-pyrido[3,4-b]indol-1-yl)-3-fluorophenoxy)ethyl)-3-fluoropropan-1-amine]
21 | 96 µM (≈ 49.9 µg/mL) | – | 3.4 | – | – | – | C[C@@H]1Cc2c([nH]c3ccccc23)[C@@H](c2c(F)cc(OCCNCCCF)cc2F)N1CC1(CF)COC1 [Example 72, N-(2-(3,5-difluoro-4-((1R,3R)-2-((3-(fluoromethyl)oxetan-3-yl)methyl)-3-methyl-2,3,4,9-tetrahydro-1H-pyrido[3,4-b]indol-1-yl)phenoxy)ethyl)-3-fluoropropan-1-amine]
22 | 47 µM (≈ 24.5 µg/mL) | 0.61 % free | 3.9 | – | – | – | COCC(C)(F)CN1[C@H](c2c(F)cc(OCCNCCCF)cc2F)c2[nH]c3ccccc3c2C[C@H]1C (stereo partly drawn) [Example 50, N-(2-(3,5-difluoro-4-((1R,3R)-2-(2-fluoro-3-methoxy-2-methylpropyl)-3-methyl-2,3,4,9-tetrahydro-1H-pyrido[3,4-b]indol-1-yl)phenoxy)ethyl)-3-fluoropropan-1-amine]
23 | 12 µM (≈ 5.95 µg/mL) | 0.61 % free | 4.1 | – | – | – | C[C@@H]1Cc2c([nH]c3ccccc23)[C@@H](c2c(F)cc(OCCNCCCF)cc2F)N1CC(C)(F)F [Example 12, N-(2-(4-((1R,3R)-2-(2,2-difluoropropyl)-3-methyl-2,3,4,9-tetrahydro-1H-pyrido[3,4-b]indol-1-yl)-3,5-difluorophenoxy)ethyl)-3-fluoropropan-1-amine]
